Laboratory results: patent publication US6355799B1, “Substituted benzene compounds, process for their preparation, and herbicidal and defoliant compositions containing them” (ISK Americas Incorporated, priority 1997, dated 2002)

Key:
Type in all cases: in vivo
[1] = test system: upland rice (Oryza sp., var. Tebonnet, RICE); assay: Post-emerge test, crop safety; settings: post-emerge, 14 days after application, rating scale 0-100
Outline: (§1)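 Compounds in acetone were track-sprayed at 187 l/ha, 15–1000 g ai/ha, onto sandy loam pots. Pre-emerge seeds were sown one day before spraying, with surface watering afterwards. Post-emerge plants were at the 2–3 leaf stage and sprayed with 0.25% v/v non-ionic surfactant. Injury was rated 0–100 at 14 days.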

[2] = test system: field corn (Zea mays L., var. Dekalb 535, CORN); assay: Post-emerge test, crop safety; settings: post-emerge, 14 days after application, rating scale 0-100
Outline: as §1

[3] = test system: barnyardgrass (Echinochloa crus-galli, ECHCG); assay: Post-emerge test, greenhouse herbicide activity screening; settings: post-emerge, 14 days after application, rating scale 0-100
Outline: (§2)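 Each test used a mechanized track sprayer delivering 187 l/ha of acetone solution at 15–1000 g ai/ha. Post-emerge foliage at 2–3 leaves was treated with added 0.25% v/v non-ionic surfactant and bottom-watered only. Injury was assessed on day 14, where 100 means total kill.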

[4] = test system: large crabgrass (Digitaria sanguinalis, DIGSA); assay: as above; settings: post-emerge, 14 days after application, rating scale 0-100
Outline: as §2

[5] = test system: redroot pigweed (Amaranthus retroflexus, AMARE); assay: as above; settings: post-emerge, 14 days after application, rating scale 0-100
Outline: as §2

[6] = test system: lambsquarters (Chenopodium album, CHEAL); assay: as above; settings: post-emerge, 14 days after application, rating scale 0-100
Outline: as §2

[7] = test system: green foxtail (Setaria viridis, SETVI); assay: as above; settings: post-emerge, 14 days after application, rating scale 0-100
Outline: as §2

[8] = test system: sicklepod (Cassia obtusifolia, CASOB); assay: as above; settings: post-emerge, 14 days after application, rating scale 0-100
Outline: as §2

[9] = test system: velvetleaf (Abutilon theophrasti, ABUTH); assay: as above; settings: post-emerge, 14 days after application, rating scale 0-100
Outline: as §2

[10] = test system: ivyleaf morningglory (Ipomoea hederacea, IPOHE); assay: as above; settings: post-emerge, 14 days after application, rating scale 0-100
Outline: as §2

[11] = test system: johnsongrass (Sorghum halepense, SORHA); assay: as above; settings: post-emerge, 14 days after application, rating scale 0-100
Outline: as §2

[12] = test system: common ragweed (Ambrosia artemisizfolia L., AMBEL); assay: as above; settings: post-emerge, 14 days after application, rating scale 0-100
Outline: as §2

[13] = test system: upland rice (Oryza sp., var. Tebonnet, RICE); assay: Pre-emerge test, crop safety; settings: rated 14 days after application, 0 = no damage, 100 = complete death
Outline: (§3)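 Herbicidal damage is scored 0 (none) to 100 (complete plant death) two weeks after a simulated field spray. Rates span 15–1000 g ai/ha, delivered in acetone at 187 l/ha. For post-emergence treatments, plants have 2–3 leaves and the spray carries 0.25% v/v non-ionic surfactant.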

[14] = test system: field corn (Zea mays L., var. Dekalb 535, CORN); assay: Pre-emerge test, crop safety; settings: rated 14 days after application, 0 = no damage, 100 = complete death
Outline: as §3

[15] = test system: redroot pigweed (Amaranthus retroflexus, AMARE); assay: Pre-emerge test, greenhouse herbicide activity screening; settings: rated 14 days after application, 0 = no damage, 100 = complete death
Outline: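 Visual ratings on a 0-100 scale (0 no damage, 100 all plants dead) were taken at 14 days after treatment. Rates of 15-1000 g ai/ha in acetone, 187 l/ha, were sprayed onto soil one day after planting (pre-emerge) or onto 2-3 leaf plants with 0.25% v/v surfactant (post-emerge).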

[16] = test system: barnyardgrass (Echinochloa crus-galli, ECHCG); assay: as above; settings: rated 14 days after application, 0 = no damage, 100 = complete death
Outline: as §1

[17] = test system: large crabgrass (Digitaria sanguinalis, DIGSA); assay: as above; settings: rated 14 days after application, 0 = no damage, 100 = complete death
Outline: as §1

[18] = test system: lambsquarters (Chenopodium album, CHEAL); assay: as above; settings: rated 14 days after application, 0 = no damage, 100 = complete death
Outline: as §1

[19] = test system: green foxtail (Setaria viridis, SETVI); assay: as above; settings: rated 14 days after application, 0 = no damage, 100 = complete death
Outline: as §1

[20] = test system: sicklepod (Cassia obtusifolia, CASOB); assay: as above; settings: rated 14 days after application, 0 = no damage, 100 = complete death
Outline: as §1

[21] = test system: velvetleaf (Abutilon theophrasti, ABUTH); assay: as above; settings: rated 14 days after application, 0 = no damage, 100 = complete death
Outline: as §1

[22] = test system: ivyleaf morningglory (Ipomoea hederacea, IPOHE); assay: as above; settings: rated 14 days after application, 0 = no damage, 100 = complete death
Outline: as §1

[23] = test system: johnsongrass (Sorghum halepense, SORHA); assay: as above; settings: rated 14 days after application, 0 = no damage, 100 = complete death
Outline: as §1

[24] = test system: common ragweed (Ambrosia artemisizfolia L., AMBEL); assay: as above; settings: rated 14 days after application, 0 = no damage, 100 = complete death
Outline: as §1

COc1c(Cl)cc(F)c(-n2c(=O)cc(C(F)(F)F)n(C)c2=O)c1NC(=O)c1ccc(Cl)cc1 [2-56]
phytotoxicity rating RICE ([1]; 63 g ai/ha): 45 | phytotoxicity rating RICE ([1]; 250 g ai/ha): 90 | phytotoxicity rating CORN ([2]; 63 g ai/ha): 30 | phytotoxicity rating CORN ([2]; 250 g ai/ha): 80 | phytotoxicity rating ECHCG ([3]; 63 g ai/ha): 0 | phytotoxicity rating ECHCG ([3]; 250 g ai/ha): 50 | phytotoxicity rating DIGSA ([4]; 63 g ai/ha): 0 | phytotoxicity rating DIGSA ([4]; 250 g ai/ha): 30 | phytotoxicity rating AMARE ([5]; 63 g ai/ha): 100 | phytotoxicity rating AMARE ([5]; 250 g ai/ha): 100 | phytotoxicity rating CHEAL ([6]; 63 g ai/ha): 100 | phytotoxicity rating CHEAL ([6]; 250 g ai/ha): 100 | phytotoxicity rating SETVI ([7]; 63 g ai/ha): 80 | phytotoxicity rating SETVI ([7]; 250 g ai/ha): 60 | phytotoxicity rating CASOB ([8]; 63 g ai/ha): 100 | phytotoxicity rating CASOB ([8]; 250 g ai/ha): 100 | phytotoxicity rating ABUTH ([9]; 63 g ai/ha): 100 | phytotoxicity rating ABUTH ([9]; 250 g ai/ha): 100 | phytotoxicity rating IPOHE ([10]; 63 g ai/ha): 100 | phytotoxicity rating IPOHE ([10]; 250 g ai/ha): 100 | phytotoxicity rating SORHA ([11]; 63 g ai/ha): 0 | phytotoxicity rating SORHA ([11]; 250 g ai/ha): 60 | phytotoxicity rating AMBEL ([12]; 63 g ai/ha): 70 | phytotoxicity rating AMBEL ([12]; 250 g ai/ha): 100 | Pre-emerge phytotoxicity rating (0-100), crop damage, RICE ([13]; 63 g ai/ha): 30 | Pre-emerge phytotoxicity rating (0-100), crop damage, RICE ([13]; 250 g ai/ha): 95 | Pre-emerge phytotoxicity rating (0-100), crop damage, CORN ([14]; 63 g ai/ha): 80 | Pre-emerge phytotoxicity rating (0-100), crop damage, CORN ([14]; 250 g ai/ha): 95 | Pre-emerge Herbicidal Activity, phytotoxicity rating (0-100), AMARE ([15]; 63 g ai/ha): 100 | Pre-emerge Herbicidal Activity, phytotoxicity rating (0-100), AMARE ([15]; 250 g ai/ha): 100 | Pre-emerge Herbicidal Activity, phytotoxicity rating (0-100), ECHCG ([16]; 63 g ai/ha): 90 | Pre-emerge Herbicidal Activity, phytotoxicity rating (0-100), ECHCG ([16]; 250 g ai/ha): 100 | Pre-emerge Herbicidal Activity, phytotoxicity rating (0-100), DIGSA ([17]; 63 g ai/ha): 100 | Pre-emerge Herbicidal Activity, phytotoxicity rating (0-100), DIGSA ([17]; 250 g ai/ha): 100 | Pre-emerge Herbicidal Activity, phytotoxicity rating (0-100), CHEAL ([18]; 63 g ai/ha): 100 | Pre-emerge Herbicidal Activity, phytotoxicity rating (0-100), CHEAL ([18]; 250 g ai/ha): 100 | Pre-emerge Herbicidal Activity, phytotoxicity rating (0-100), SETVI ([19]; 63 g ai/ha): 100 | Pre-emerge Herbicidal Activity, phytotoxicity rating (0-100), SETVI ([19]; 250 g ai/ha): 100 | Pre-emerge Herbicidal Activity, phytotoxicity rating (0-100), CASOB ([20]; 63 g ai/ha): 100 | Pre-emerge Herbicidal Activity, phytotoxicity rating (0-100), CASOB ([20]; 250 g ai/ha): 100 | Pre-emerge Herbicidal Activity, phytotoxicity rating (0-100), ABUTH ([21]; 63 g ai/ha): 100 | Pre-emerge Herbicidal Activity, phytotoxicity rating (0-100), ABUTH ([21]; 250 g ai/ha): 100 | Pre-emerge Herbicidal Activity, phytotoxicity rating (0-100), IPOHE ([22]; 63 g ai/ha): 100 | Pre-emerge Herbicidal Activity, phytotoxicity rating (0-100), IPOHE ([22]; 250 g ai/ha): 100 | Pre-emerge Herbicidal Activity, phytotoxicity rating (0-100), SORHA ([23]; 63 g ai/ha): 99 | Pre-emerge Herbicidal Activity, phytotoxicity rating (0-100), SORHA ([23]; 250 g ai/ha): 100 | Pre-emerge Herbicidal Activity, phytotoxicity rating (0-100), AMBEL ([24]; 63 g ai/ha): 100 | Pre-emerge Herbicidal Activity, phytotoxicity rating (0-100), AMBEL ([24]; 250 g ai/ha): 100
